Test results as given in paper PMC6118079 (Iranian Journal of Basic Medical Sciences, 2018).

Tested on: krait snake venom acetylcholinesterase (AChE)
Format: biochemical, Bungarus sindanus
Details: no extract (control); 0.5-1 mM substrate, 50 mM phosphate pH 7.4, 37 °C; crude venom as enzyme source

## CC(=O)SCC[N+](C)(C)C [acetylthiocholine]
  Km: 160 µM
